Series [1] relates to TGF-β receptors in Mv1Lu cells. Briefly: Binding of 125I-TGF-β2 to Mv1Lu cells in the presence of α2M*. It is filed as cell-based, mink. Particulars: 30 μM arachidonic acid, 200 μg/ml α2M*. An excerpt: The levels of TGF ? β and ? 2M* also increase dramatically. α2M* is capable of inhibiting TGF- ? activity by forming complexes with TGF- ? and thus preventing it from binding to TGF ? β receptors in cells involved. Fatty acids may potentiate TGF ? β activity by blocking complex formation of ? 2M* and TGF ? β under these conditions. To test this possibility, we determined the effects of arachidonic acid on ^125I-TGF- ? 2 binding (in the presence and absence of α2M*) to Mv1Lu cells. ? 2M* is known to inhibit TGF- ? 2 more strongly than TGF ? β1 binding to T receptors in cells (13). Various concentrations of ^125I-TGF- ? 2 were preincubated with 200 μg/ml of ? 2M* in the presence or absence of 30 μM arachidonic acid for 30 min prior to the performance of binding assays in Mv1Lu cells. […] The residual ^125I-TGF- ? binding associated with the cells after ? 2M* inhibition was mainly due to non-specific binding of ^125I-TGF- ? 2. […] In the presence of 200 μg/ml of ? 2M*, the dose-response curve of TGF ? β2 shifted to the right. […] Addition of arachidonic acid at 0.5 and 1 μM reversed the inhibitory effect of. α2M* on TGF- ? 2-induced growth inhibition as measured by [methyl-^3H]-thymidine incorporation.
Binding of ^125I-TGF- ? […] After 2.5 hr at 0° C., the cells were washed with binding buffer, and the cell-associated radioactivity was determined. […]

Series [2] in a line: Plasma clearance of 125I-TGF-β2 with and without α2M* and arachidonic acid. It counts as in vivo, mice. Particulars: control experiments, no α2M*. The procedure: (§1) TGF ? β1-α2M* and TGF- ? 2- ? 2M* complexes are cleared from plasma by the ? liver (30). To test the possibility that fatty acids may be able to affect the plasma clearance of TGF ? β and α2M* complexes, ^125I-TGF ? β1 or ^125I-TGF- ? 2 were prei presence or absence of 10 μM arachidonic acid at room temperature for 30 min, and then injected into mice via tail vein according to published procedures (19). At several time intervals (10 sec, 1, 2, 3, 5, 10, 15, 20, 30 and 60 min) about 50 μl of blood was collected and counted by a γ-counter. […] The t 1+α2M* or ^125I-TGF- ? 2+α2M* were approximately 4 min. These twith published values of free ^125I-TGF- ? 1,2 and ^125I-TGF- ? 1,2-α2M* complexes, respe (19). In the presence of arachidonic acid, the t1/2s of ^125I-TGF ? β1+α2M* and ^125I-TGF α2M* were decreased to approximately 1-2 min; these are essentially identical to the t1/2s of free ^125I-TGF- ? 1 and ^125I-TGF ? β2 (FIGS. 7A and B). In control experiments, arachidonic acid did no affect the plasma clearance of free ^125I-TGF ? β1 and ^125I-TGF- ? 2.
(§2) Plasma clearance of ^125I-TGF ? β in the presence and absence of ? 2M*-^125I-TGF- ? 1 nM) or ^125I-TGF- ? 2 (1 nM) was pre-incubated with ? […] The radioactivity in the blood sample obtained at 10 s was taken as 100%.

A short description of series [3]: Plasma clearance of 125I-TGF-β1 with and without α2M* and arachidonic acid. It counts as in vivo, mice. Particulars: control experiments, no α2M*. The procedure:
as §1, §2

With `CCCCC/C=C\C/C=C\C/C=C\C/C=C\CCCC(=O)O` [arachidonic acid], in series [1], the “reversal of α2M* inhibition of 125I-TGF-β2 binding to Mv1Lu cells” value is listed as “completely reversed”. Also, in series [2], the “effect on plasma clearance of free 125I-TGF-β2” value is on record as “did no affect”. The “effect on plasma clearance of free 125I-TGF-β1” value in series [3] is recorded as “did no affect”.

(Values after patent publication US20040229791A1, “Compositions and methods of modulating TGF-beta activity by fatty acids” (priority 2002, published 2004).)
